{"source": "patent US10456377B2", "about": "“Anesthetic comprising tetracaine and a vasoconstrictor for administration to a subject” (St. Renatus, LLC, priority 2009, dated 2019)", "system": "maxillary dentition", "experiment": "Intranasal tetracaine HCl solution, anesthesia of the maxillary dentition by electric pulp testing (EPT)", "format": "in vivo, human", "details": "nasal spray, tetracaine doses between 4 and 16 mg, 80 subjects", "protocol": "The purpose of this study was to identify an effective and safe dosage of an intranasally administered tetracaine hydrochloride solution for obtaining anesthesia of the maxillary dentition. Healthy human volunteers were administered a dose of tetracaine HCl delivered as a nasal spray using a BD Accuspray™ device. The administration of the local anesthetic varied by total dose, concentration, and volume, and it included single doses in a single nostril, split doses in the same nostril, and divided doses in both nostrils. Different techniques regarding direction of spray were also investigated.\nThe efficacy of tetracaine hydrochloride in 80 subjects was measured by monitoring pain levels via electric pulp testing (EPT). EPT testing was accomplished by passing a current through the tooth to be tested wherein the lowest level of current is a “0” and the highest level of current is an “80.” Subjects are exposed to an increasing amount of current (starting at 0 and ramping up to 80). If any pain was felt by the subject, the test was stopped and the EPT reading was recorded.\nSubjects received tetracaine doses between 4 and 16 mg.", "note": "Structures can show the parent of a compound that is named as a salt.", "data": [{"compound": "CCCCNc1ccc(C(=O)OCCN(C)C)cc1", "note": "[tetracaine HCl, 2-(dimethylamino)ethyl 4-(butylamino)benzoate]", "values": [{"measurement": "maxillary arch anesthesia, as indicated by an EPT score of 80", "value": "did not result in maxillary arch anesthesia"}]}]}
